Test results reported in article PMC11073699, “Odorant receptors for floral- and plant-derived volatiles in the yellow fever mosquito, Aedes aegypti (Diptera: Culicidae)” (PLOS ONE, 2024).
Where “and” joins values, the source holds several entries; their conditions need not be identical. Equal values may be shown once.

Assays:
Type in all cases: cell-based
AaegOR13 = molecular target: T1, AaegOR13 (Aedes aegypti, UniProt Q16Z13); test: Two-electrode voltage clamp of Xenopus laevis oocytes expressing AaegOR13/Orco (blends, unitary compounds, concentration-response); settings: unitary compounds; individual oocytes 1-7
T1 sequence (Q16Z13 1-389): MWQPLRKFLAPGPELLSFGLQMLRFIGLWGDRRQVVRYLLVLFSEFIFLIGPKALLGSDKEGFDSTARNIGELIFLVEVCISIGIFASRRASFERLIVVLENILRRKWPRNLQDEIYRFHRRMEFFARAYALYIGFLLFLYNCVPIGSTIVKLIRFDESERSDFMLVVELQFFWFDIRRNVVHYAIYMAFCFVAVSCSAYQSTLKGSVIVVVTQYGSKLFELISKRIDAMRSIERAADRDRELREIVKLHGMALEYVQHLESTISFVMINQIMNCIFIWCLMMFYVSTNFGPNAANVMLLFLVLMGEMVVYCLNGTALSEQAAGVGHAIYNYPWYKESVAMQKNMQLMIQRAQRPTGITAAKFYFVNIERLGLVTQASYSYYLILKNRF
T1 sequence (Q178U6 1-478 partner): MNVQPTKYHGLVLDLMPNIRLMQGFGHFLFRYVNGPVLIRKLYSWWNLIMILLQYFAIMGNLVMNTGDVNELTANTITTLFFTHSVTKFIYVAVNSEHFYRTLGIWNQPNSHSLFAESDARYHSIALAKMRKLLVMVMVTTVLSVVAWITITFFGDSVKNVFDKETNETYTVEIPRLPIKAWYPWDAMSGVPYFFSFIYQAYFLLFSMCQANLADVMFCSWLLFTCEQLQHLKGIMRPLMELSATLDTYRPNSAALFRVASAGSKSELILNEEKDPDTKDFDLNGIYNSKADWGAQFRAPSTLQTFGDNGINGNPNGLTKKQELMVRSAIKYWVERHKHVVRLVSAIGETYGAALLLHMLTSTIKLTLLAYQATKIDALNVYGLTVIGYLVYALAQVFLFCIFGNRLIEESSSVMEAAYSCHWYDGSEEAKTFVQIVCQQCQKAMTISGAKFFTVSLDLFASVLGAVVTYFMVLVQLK
Summary of the method: (§1)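 Xenopus oocytes injected with cRNA for AaegOR plus Orco, kept 48–72 hrs at 18°C, clamped at -80 mV by TEVC. Odorant blends or single compounds (10% DMSO dilutions) perfused 10–15 s; concentration-response from 10^-3M to 10^-9M, ≥7 responding oocytes, ≥2 biological replicates.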

AaegOR10 = molecular target: T2, AaegOR10 (Aedes aegypti, UniProt Q177X3); test: Two-electrode voltage clamp of Xenopus laevis oocytes expressing AaegOR10/Orco (blends, unitary compounds, concentration-response); settings: unitary compounds of Indoles 1; individual oocytes 1-9 (replicates)
T2 sequence (Q177X3 1-375): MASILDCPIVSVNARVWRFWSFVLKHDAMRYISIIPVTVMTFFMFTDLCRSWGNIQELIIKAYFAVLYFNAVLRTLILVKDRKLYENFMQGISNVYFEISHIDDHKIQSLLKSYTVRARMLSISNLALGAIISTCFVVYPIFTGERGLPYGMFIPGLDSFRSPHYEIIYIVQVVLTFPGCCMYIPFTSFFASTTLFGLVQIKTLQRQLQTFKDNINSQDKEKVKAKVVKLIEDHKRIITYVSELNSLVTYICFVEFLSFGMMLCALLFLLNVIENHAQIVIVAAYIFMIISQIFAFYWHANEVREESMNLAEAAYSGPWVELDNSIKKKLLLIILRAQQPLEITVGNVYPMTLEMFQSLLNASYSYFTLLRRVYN
T2 sequence (Q178U6 1-478 partner): T1 sequence (Q178U6 1-478 partner)
Excerpt: (§2) The coding regions of ten AaegOR genes of interest (S3 File) and AaegOrco were synthesized by Twist Bioscience (San Francisco, CA, USA) and cloned into the pENTR plasmid. The Gateway LR directional cloning system (Invitrogen Corp., Carlsbad, CA, USA) was utilized to subclone AaegOR coding regions into the pSP64t-RFA oocyte expression plasmid. Plasmids were purified using the GeneJet Plasmid Miniprep Kit (ThermoFisher Scientific, Waltham, MA, USA). Purified plasmids were sequenced in both directions to confirm coding regions.
(§3) Chemical compounds (S6 File) used in the deorphanization of AaegORs were purchased from Acros Organics (Morris, NJ, USA), Alfa Aesar (Ward Hill, MA, USA), and ThermoFisher Scientific (Waltham, MA, USA) at the highest purity available. Compounds were stored as 1M stocks in 100% DMSO. Serial dilutions of each compound were prepared in 10% DMSO and blended by chemical class.
(§4) pSP64t-RFA: AaegOR clones were linearized using Xbal, and cRNAs were synthesized using the mMESSAGE mMACHINE ® SP6 kit (Life Technologies, Carlsbad, CA, USA). Xenopus laevis stage V-VII oocytes purchased from Xenopus1 (Dexter, MI, USA) were stored at 18°C in Incubation medium (ND96 96 with 5% dialyzed horse serum, 50μg/mL gentamycin, 100μg/mL streptomycin, 100μg/mL penicillin, and 550μg/mL sodium pyruvate). 30nL of cRNA was injected into multiple oocytes using a microinjection syringe pump (World Precision Instruments, Sarasota, FL, USA) maintained at 18°C for 48–72 hrs. Odorant blends were perfused across individual oocytes for 10–15 seconds, held at a resting membrane potential of -80 mV using an OC-725C oocyte clamp (Warner Instruments, LLC, Hamden, CT, USA). Induced currents were measured indirectly using the two-electrode voltage clamp technique (TEVC). Following each stimulus, currents were allowed to return to baseline before further stimulation. Data was captured using the Digidata 1550 B digitizer and PClamp10 software (Molecular Devices, San Jose, CA, USA). Concentration-response curves were generated by perfusing unitary odorants over oocytes at increasing concentrations from [10^-3M] to [10^-9M]. Data were analyzed using GraphPad Prism 8 (GraphPad Software Inc., La Jolla, CA, USA). At least two biological replicates were conducted at each concentration and for each compound. Data for at least seven oocytes responding to each compound was analyzed (S7 File).

AaegOR55 = molecular target: T3, AaegOR55 (Aedes aegypti, UniProt Q16T12); test: Two-electrode voltage clamp of Xenopus laevis oocytes expressing AaegOR55/Orco (blends, unitary compounds, concentration-response); settings: AaegOR55, compounds of blend Indoles 1
T3 sequence (Q16T12 10-392): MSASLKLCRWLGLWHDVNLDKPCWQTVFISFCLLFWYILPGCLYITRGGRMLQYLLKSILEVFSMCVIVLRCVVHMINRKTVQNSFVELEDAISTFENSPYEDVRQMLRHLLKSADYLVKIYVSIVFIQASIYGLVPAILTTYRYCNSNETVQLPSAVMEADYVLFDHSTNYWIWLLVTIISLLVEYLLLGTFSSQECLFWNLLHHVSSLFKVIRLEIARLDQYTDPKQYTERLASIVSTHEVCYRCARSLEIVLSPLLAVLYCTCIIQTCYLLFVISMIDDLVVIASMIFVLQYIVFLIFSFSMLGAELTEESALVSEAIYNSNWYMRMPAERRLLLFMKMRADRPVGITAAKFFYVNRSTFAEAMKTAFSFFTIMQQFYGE
T3 sequence (Q178U6 1-478 partner): T1 sequence (Q178U6 1-478 partner)
Excerpt: as §2, §3, §4

AaegOR15 = molecular target: T4, AaegOR15 (Aedes aegypti, UniProt A0A6B9QIR2); test: Two-electrode voltage clamp of Xenopus laevis oocytes expressing AaegOR15/Orco (blends, unitary compounds, concentration-response); settings: unitary compounds of Alcohols 2; individual oocytes 1-10 (replicates)
T4 sequence (A0A6B9QIR2 1-390): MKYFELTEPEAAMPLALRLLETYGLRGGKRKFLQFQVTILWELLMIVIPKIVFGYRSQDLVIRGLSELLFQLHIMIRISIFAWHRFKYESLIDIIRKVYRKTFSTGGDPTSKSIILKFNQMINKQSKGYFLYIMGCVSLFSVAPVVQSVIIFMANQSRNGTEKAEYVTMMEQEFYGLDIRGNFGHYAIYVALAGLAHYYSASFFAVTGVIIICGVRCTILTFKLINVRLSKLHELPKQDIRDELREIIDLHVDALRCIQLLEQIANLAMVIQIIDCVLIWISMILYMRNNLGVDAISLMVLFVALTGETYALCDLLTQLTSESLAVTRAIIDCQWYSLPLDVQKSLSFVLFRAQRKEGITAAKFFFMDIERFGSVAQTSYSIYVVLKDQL
T4 sequence (Q178U6 1-478 partner): T1 sequence (Q178U6 1-478 partner)
Summary of the method: as §1

AaegOR28 = molecular target: T5, AaegOR28 (Aedes aegypti, UniProt Q0IGE1); test: Two-electrode voltage clamp of Xenopus laevis oocytes expressing AaegOR28/Orco (blends, unitary compounds, concentration-response); settings: for Raw Data (Responses in nA), Alcohols 3 unitary compounds / Raw Data (Responses in nA), concentration-response: AaegOR28; for Raw Data (Responses in nA), Alcohols 3 unitary compounds: compounds of blend Alcohols 3, individual oocytes 1-10; for Raw Data (Responses in nA), concentration-response: individual oocytes 1-8
T5 sequence (Q0IGE1 1-394): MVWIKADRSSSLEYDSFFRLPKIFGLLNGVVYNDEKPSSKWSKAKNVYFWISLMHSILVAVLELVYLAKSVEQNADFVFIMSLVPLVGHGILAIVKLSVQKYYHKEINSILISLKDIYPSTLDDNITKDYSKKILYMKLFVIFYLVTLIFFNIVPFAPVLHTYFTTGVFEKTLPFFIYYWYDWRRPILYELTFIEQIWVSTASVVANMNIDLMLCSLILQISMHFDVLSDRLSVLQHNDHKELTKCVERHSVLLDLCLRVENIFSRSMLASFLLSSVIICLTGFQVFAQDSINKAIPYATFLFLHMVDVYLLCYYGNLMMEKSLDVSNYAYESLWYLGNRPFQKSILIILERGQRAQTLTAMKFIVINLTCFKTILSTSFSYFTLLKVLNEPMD
T5 sequence (Q178U6 1-478 partner): T1 sequence (Q178U6 1-478 partner)
Excerpt: as §2, §3, §4

For `COC(=O)c1c[nH]c2ccccc12` [methyl indole-3-carboxylate], the “Raw data (Responses in nA), unitary compounds of Indoles 1, Alcohols 1, Alcohols 3” value (shortened to “Raw data … Alcohols 1, Alcohols 3”) (AaegOR13) was 0.0 nA and 20.0 nA and 15.0 nA (2×) and 10.0 nA (3×) and the “Raw response, unitary compounds of blend Indoles 1” value (AaegOR10) was 0.0 nA (6×) and 10.0 nA (2×) and 30.0 nA.
In the case of `COC(=O)c1c[nH]c2ccccc12` [methylindole-3-carboxylate], the “Normalized response, Average, Indoles 1 unitary compounds” value (AaegOR55; average of 7 oocytes) is reported as 5.2, the “Raw Data (Responses in nA), Indoles 1 unitary compounds” value (AaegOR55; individual oocytes (Oocyte 1-7)) is reported as 20.0 nA and 10.0 nA (5×) and 15.0 nA and the “Normalized response, Indoles 1 unitary compounds” value (AaegOR55; individual oocytes (Oocyte 1-7), normalized to the strongest compound per oocyte) is reported as 8.5 and 7.1 and 4.0 and 3.3 and 5.4 and 4.9 and 3.4.
For `CCC(C)(O)CCCC(C)C` (stereo not shown) [tetrahydrolinalool, Tetrahydrolinalool], the “Raw data (Responses in nA), compounds of blend Alcohols 2” value (AaegOR15) was 0.0 nA (3×) and 20.0 nA (4×) and 40.0 nA and 10.0 nA and 5.0 nA, the “Raw data … Alcohols 1, Alcohols 3” value (AaegOR13) was 0.0 nA and the EC50 (AaegOR28; AaegOR28/Orco expressing oocytes, TEVC, concentration-response of normalized current) was 44.1 µM. For the same compound, the “Raw Data (Responses in nA), Alcohols 3 unitary compounds” value (AaegOR28) was 30 nA (2×) and 25 nA and 35 nA and 20 nA (2×) and 50 nA and 40 nA and 45 nA and 90 nA, the “Raw Data (Responses in nA), concentration-response” value (“Raw Data … concentration-response” for short) (AaegOR28; concentration 1e-6) was 5 nA (4×) and 0 nA (2×) and 10 nA and 20 nA and the “Raw Data … concentration-response” value (AaegOR28; concentration 5e-6) was 30 nA and 10 nA (2×) and 20 nA (4×) and 50 nA. For the same compound, the “Raw Data … concentration-response” value (AaegOR28; concentration 1e-5) was 40 nA (3×) and 30 nA (2×) and 50 nA and 45 nA and 95 nA, the “Raw Data … concentration-response” value (AaegOR28; concentration 5e-5) was 150 nA and 200 nA and 70 nA and 230 nA and 220 nA and 90 nA and 180 nA and 260 nA and the “Raw Data … concentration-response” value (AaegOR28; concentration 0.0001) was 290 nA and 320 nA and 140 nA and 330 nA and 400 nA and 100 nA and 220 nA and 310 nA. For the same compound, the “Raw Data … concentration-response” value (AaegOR28; concentration 0.0005) was 380 nA and 530 nA and 180 nA and 400 nA and 480 nA and 105 nA and 230 nA and 340 nA and the “Raw Data … concentration-response” value (AaegOR28; concentration 0.001) was 400 nA and 440 nA (2×) and 200 nA and 500 nA and 110 nA and 350 nA and 300 nA.
In the case of isoeugenol, the “Raw data (Responses in nA), compounds of blend Alcohols 2” value (AaegOR15) is reported as 0.0 nA (5×) and 10.0 nA (2×) and 20.0 nA (3×), the “Raw data … Alcohols 1, Alcohols 3” value (AaegOR13) is reported as 0.0 nA and 110.0 nA and 25.0 nA and 40.0 nA and 35.0 nA (2×) and 15.0 nA and the “Raw Data (Responses in nA), Alcohols 3 unitary compounds” value (AaegOR28) is reported as 0 nA.
